Test results reported in US20240398771A1, “TREATMENT OF SCLERODERMA AND RAYNAUD'S SYNDROME” (Aisa Pharma, Inc., priority 2023, published 2024).

Experiments:
participants with SSc-RP [1] = assay: SHAQ Visual Analog Scale - Breathing Problems; format: in vivo, human; design: Visual Analog Scale-Breathing Problems, Baseline, Mean / Visual Analog Scale-Breathing Problems, Baseline, Median / Visual Analog Scale-Breathing Problems, In Clinic Visit (Day 12), Mean / Visual Analog Scale-Breathing Problems, In Clinic Visit (Day 12), Median / Visual Analog Scale-Breathing Problems, Change from Baseline, Mean / Visual Analog Scale-Breathing Problems, Change from Baseline, Median: scale not given here; conditions: Tadalafil 5 mg; Modified ITT, Part A
Method: Results: Patients in the study were administered the Scleroderma Health Assessment Questionnaire (SHAQ) at the time of study entry and during clinic visits following the treatment period. The study is a two-part, parallel arm design, prospective, double-blind, randomized study conducted in Australia (Flinders Medical Center). 27 patients were randomized into the first phase of the study, following which a DSMB meeting was held, which reviewed data on the primary study endpoint and key Raynaud's secondary endpoints. Data on the SHAQ was not available for the DSMB to review. The mITT population, in which any data was available post treatment was 24 patients was the analysis population for this first part of the study. The second part (i.e., part B) of the study will randomize 36 patients in a double blind, randomized, prospective, placebo controlled, crossover study. In the first part (i.e., Part A) of the study for which data is presented, patients were randomized into 6 groups, cilnidipine at two doses (10 and 20 mg) alone and in combination with tadalafil 5 mg, tadalafil 5 mg alone, and placebo. […] The DSMB recommended that the study proceed into its double blind prospective cross overpowered second phase and compare cilnidipine 20 mg alone to placebo. […] Cilnidipine treatment may reduce patient-reported SSc disease disability compared to placebo • b. Cilnidipine treatment may reduce patient-reported SSc disease alternative disability compared to placebo • c. Cilnidipine treatment may reduce patient-reported SSc disease pain* compared to placebo • d. Cilnidipine treatment may reduce patient-reported SSc disease severity compared to placebo • e. Cilnidipine treatment may reduce patient-reported SSc disease skin ulcer severity rating compared to placebo • f Cilnidipine treatment may reduce patient-reported SSc disease breathing difficulty compared to placebo • g. […] SSc disease pain comprises not only pain from Raynaud's but joint pain, headache, odynophagia, back pain, pain from skin ulceration, and neuropathic pain). Table E includes results of the Scleroderma Health Assessment Questionnaire.

participants with SSc-RP [2] = assay: Average duration of weekly symptomatic RP attacks (minutes); format: in vivo, human; conditions: ITT Part A
Description: The relevant metrics measured by this tool daily are: • Study medication • SSc-RP symptoms (Reporting an attack including duration of attack) • Severity of the attack considering all symptoms of the attack e.g. tingling, numbness, pain, color changes (VAS 0-10 cm scale) • Participant's location at the time of the attack (inside home/outside home) • Selecting symptoms experienced during the attack (tingling, numbness, pain, color changes, other) • Pain rating during the attack (11-point Likert scale) • The RCS based on how much difficulty participants had with Raynaud's today, how many attacks the participant had, and how long they lasted. Participants will also be asked to consider how much pain, numbness, or other symptoms the Raynaud's caused in fingers (including painful sores), and how much the Raynaud's alone affected the use of hands today (VAS 0-10 cm scale).
The absolute change in average duration of weekly RP attacks from baseline to the end of each dosing period was and will be a secondary outcome variable. The sponsor-developed participant-informed diary was and will be used to record data. Average duration of weekly RP attacks is defined as the total duration of RP attacks divided by total number of RP attacks within the last 7 days of each dosing period. Total duration of RP attacks during the last 7 days of screening period divided by the total number of RP attacks will be used as baseline for the analysis of all periods. The variable will be calculated similar to frequency data as before.

[3] = Excluding Outliers, Baseline RCS subgroup 2 (second half of Table B-4, stratum not given), last 7 days of dosing period
[4] = Excluding Outliers, Baseline RCS subgroup 2 (second half of Table B-4, stratum not given), last 7 days of screening period
[5] = Baseline RCS subgroup 2 (Table B-3, stratum not given), last 7 days of dosing period
[6] = Baseline RCS subgroup 2 (Table B-3, stratum not given), last 7 days of screening period

CN1CC(=O)N2[C@H](c3ccc4c(c3)OCO4)c3[nH]c4ccccc4c3C[C@@H]2C1=O [Tadalafil]
Visual Analog Scale-Breathing Problems, Baseline, Mean (participants with SSc-RP [1]): 1.025
Visual Analog Scale-Breathing Problems, Baseline, Median (participants with SSc-RP [1]): 0.450
Visual Analog Scale-Breathing Problems, Change from Baseline, Mean (participants with SSc-RP [1]): 0.925
Visual Analog Scale-Breathing Problems, Change from Baseline, Median (participants with SSc-RP [1]): 0.300
Visual Analog Scale-Breathing Problems, In Clinic Visit (Day 12), Mean (participants with SSc-RP [1]): 1.950
Visual Analog Scale-Breathing Problems, In Clinic Visit (Day 12), Median (participants with SSc-RP [1]): 0.450
Visual Analog Scale-Breathing Problems, Percent Change from Baseline, Mean (participants with SSc-RP [1]): 213.54%
Visual Analog Scale-Breathing Problems, Percent Change from Baseline, Median (participants with SSc-RP [1]): 115.63%
Average Duration of weekly symptomatic RP attacks, Max (participants with SSc-RP [2]; [3]): 6.0, 6.0 minutes
Average Duration of weekly symptomatic RP attacks, Mean (participants with SSc-RP [2]; [3]): 6.00 min
Average Duration of weekly symptomatic RP attacks, Median (participants with SSc-RP [2]; [3]): 6.00 min
Average Duration of weekly symptomatic RP attacks, Min (participants with SSc-RP [2]; [3]): 6.0, 6.0 minutes
Average Duration of weekly symptomatic RP attacks, Q1 (participants with SSc-RP [2]; [3]): 6.00, 6.00 minutes
Average Duration of weekly symptomatic RP attacks, Q3 (participants with SSc-RP [2]; [3]): 6.00, 6.00 minutes
Average duration of weekly symptomatic RP attacks, Change from Baseline, Max (participants with SSc-RP [2]; [3]): −4.6, −4.6 minutes
Average duration of weekly symptomatic RP attacks, Change from Baseline, Mean (participants with SSc-RP [2]; [3]): -4.58 min
Average duration of weekly symptomatic RP attacks, Change from Baseline, Min (participants with SSc-RP [2]; [3]): −4.6, −4.6 minutes
Average duration of weekly symptomatic RP attacks, Change from Baseline, Q3 (participants with SSc-RP [2]; [3]): −4.58, −4.58 minutes
Average duration of weekly symptomatic RP attacks, Percent Change from Baseline, Max (participants with SSc-RP [2]; [3]): −43.3, −43.3%
Average duration of weekly symptomatic RP attacks, Percent Change from Baseline, Mean (participants with SSc-RP [2]; [3]): −43.31%
Average duration of weekly symptomatic RP attacks, Percent Change from Baseline, Min (participants with SSc-RP [2]; [3]): −43.3, −43.3%
Average duration of weekly symptomatic RP attacks, Percent Change from Baseline, Q3 (participants with SSc-RP [2]; [3]): −43.31, −43.31%
Average duration of weekly symptomatic RP attacks, Baseline, Max (participants with SSc-RP [2]; [4]): 10.6, 10.6 minutes
Average duration of weekly symptomatic RP attacks, Baseline, Mean (participants with SSc-RP [2]; [4]): 10.58 min
Average duration of weekly symptomatic RP attacks, Baseline, Median (participants with SSc-RP [2]; [4]): 10.58 min
Average duration of weekly symptomatic RP attacks, Baseline, Min (participants with SSc-RP [2]; [4]): 10.6, 10.6 minutes
Average duration of weekly symptomatic RP attacks, Baseline, Q1 (participants with SSc-RP [2]; [4]): 10.58, 10.58 minutes
Average duration of weekly symptomatic RP attacks, Baseline, Q3 (participants with SSc-RP [2]; [4]): 10.58, 10.58 minutes
Average Duration of weekly symptomatic RP attacks (participants with SSc-RP [2]; [5]): 6.0 min
Average Duration of weekly symptomatic RP attacks, Max (participants with SSc-RP [2]; [5]): 818.6 min
Average Duration of weekly symptomatic RP attacks, Q1 (participants with SSc-RP [2]; [5]): 6.00 min
Average Duration of weekly symptomatic RP attacks, Q3 (participants with SSc-RP [2]; [5]): 818.57 min
Average duration of weekly symptomatic RP attacks, Change from Baseline (participants with SSc-RP [2]; [5]): -4.6 min
Average duration of weekly symptomatic RP attacks, Change from Baseline, Max (participants with SSc-RP [2]; [5]): 286.1 min
Average duration of weekly symptomatic RP attacks, Change from Baseline, Q1 (participants with SSc-RP [2]; [5]): -4.58 min
Average duration of weekly symptomatic RP attacks, Change from Baseline, Q3 (participants with SSc-RP [2]; [5]): 286.07 min
Average duration of weekly symptomatic RP attacks, Percent Change from Baseline, Max (participants with SSc-RP [2]; [5]): 53.7%
Average duration of weekly symptomatic RP attacks, Percent Change from Baseline, Min (participants with SSc-RP [2]; [5]): −43.3%
Average duration of weekly symptomatic RP attacks, Percent Change from Baseline, Q1 (participants with SSc-RP [2]; [5]): −43.31%
Average duration of weekly symptomatic RP attacks, Percent Change from Baseline, Q3 (participants with SSc-RP [2]; [5]): 53.72%
Average duration of weekly symptomatic RP attacks, Baseline (participants with SSc-RP [2]; [6]): 10.6 min
Average duration of weekly symptomatic RP attacks, Baseline, Max (participants with SSc-RP [2]; [6]): 532.5 min
Average duration of weekly symptomatic RP attacks, Baseline, Mean (participants with SSc-RP [2]; [6]): 271.54 min
Average duration of weekly symptomatic RP attacks, Baseline, Median (participants with SSc-RP [2]; [6]): 271.54 min
Average duration of weekly symptomatic RP attacks, Baseline, Q1 (participants with SSc-RP [2]; [6]): 10.58 min
Average duration of weekly symptomatic RP attacks, Baseline, Q3 (participants with SSc-RP [2]; [6]): 532.50 min
